Values of other authors as cited in PMC2728785 (Biomaterials, 2009).

How the values were obtained:
[1] = versus unmodified bovine hemoglobin

**Q.** For `CC(C)(S)CN` [1-amino-2-methyl-2-propanethiol], which “degradation rate relative to the less hindered cysteamine linker” value (disulfide bond prepared from the sterically hindered linker) is on record?
**A.** about 100 times slower

**Q.** Which “increase of blood half-life” value [1] does the source give for “12 copies of a 5 kDa PEG conjugated to bovine hemoglobin: PEGylated bovine hemoglobin from the literature” here?
**A.** 14 factor

**Q.** And the “increase of systemic availability” value [1]?
**A.** 8 factor

**Q.** For `NCCS` [cysteamine linker, cysteamine], which “t1/2 of GSH-dependent disulfide degradation” value (disulfide bond prepared from the linker) is on record?
**A.** 3 min
